Values quoted from earlier work in patent US4657924A, “Nafazatrom as a lipoxygenase inhibitor” (priority 1983, dated 1987).

What was measured:
[1] = system: cyclooxygenase; conditions: stated disadvantage; cited from earlier work
[2] = system: synthesis of prostaglandins from arachidonic acid; conditions: comparison with nafazatrom; cited from earlier work

| SMILES | activity of known lipoxygenase inhibitors as cyclooxygenase inhibitors [1] | action on the synthesis of prostaglandins from arachidonic acid [2] |
| --- | --- | --- |
| O=C1CCN(c2ccccc2)N1 [phenidone] | either at the same time active as cyclooxygenase inhibitors or active only in very high concentrations | – |
| CC(Cc1ccc(O)c(O)c1)C(C)Cc1ccc(O)c(O)c1 (stereo not shown) [nordihydroguaiaretic acid] | either at the same time active as cyclooxygenase inhibitors or active only in very high concentrations | – |
| CCCCCC#CCC#CCC#CCC#CCCCC(=O)O [5,8,11,14-eicosatetrainoic acid] | either at the same time active as cyclooxygenase inhibitors or active only in very high concentrations | – |
| COc1ccc2c(c1)c(CC(=O)O)c(C)n2C(=O)c1ccc(Cl)cc1 [indomethacin] | – | overall inhibiting action |
